Where a SMILES comes first, the peptide text is derived from it. [ ]: non-standard residue; d: D form. The star is where a group is joined. pGlu = O=C1CC[C@@H](C(=O)O)N1; Octanoyl = CCCCCCCC(=O)*
What was measured:
IFNγ = test: IFN-γ production in LPS-stimulated human PBMCs; assay type: cell-based; details: ZEP3 40, 100 and 150 μg/ml, 1 hr pre-treatment, LPS 24 hours; 4 donors (FIG. 9)
Procedure: (§1) The effect of the peptide ZEP3 (SEQ ID NO: 1) on cytokine production was evaluated in an in vitro human model of inflammation. Human Peripheral Blood Mononuclear Cells (PBMCs) were stimulated using Lipopolysaccharide (LPS) to produce cytokines.
(§2) Method: Briefly, cryopreserved human PBMCs of four healthy non-smokers, not on any corticosteroids or other inflammatory drugs, were grown in RPMI 1640 with 10% heat inactivated fetal bovine serum (FBS), 100 U/ml penicillin and 100 μg/mL streptomycin (complete growth medium, CGM).
(§3) Human PBMCs were thawed and plated for all groups (1-6, Table 7), and rested for 1 hour before treatment. […] 24 hours post LPS addition, Almar Blue fluorescent at 585 nm (correlating with cell viability), is measured and supernatant is collected for cytokine determination. […]
(§4) Detailed method: cells were thawed according to manufacturer's instructions, washed in CGM and assessed for viability using trypan blue staining. […] At 24 hours post LPS stimulation, plates were read for assessment of cell viability and cell culture supernatants were harvested and stored at −80° C. for cytokine analysis. […] Cytokine production and percentage of sample stimulation vs. the average of the stimulation control were calculated.

IL-6 = IL-6 in corneal epithelial cell culture dry eye disease model; assay type: cell-based, human
Procedure: (§5) The anti-inflammatory effect of the peptides in experimental corneal inflammation was tested in a cell culture model using various inflammasome inducers such as LPS, 4-HNE, Nigericin and others to model a dry-eye-disease (DED). Using a dose-response model, human primary corneal epithelial cells were pre-treated with the peptides followed by exposure to DED inducers. Expression of IL-6 was measured as well as cell viability, ROS production.
(§6) Human primary Corneal Epithelial Cells (PCS-700-010; HCECs) were treated with ZEP3 at concentrations ranging from 3 to 12 μg/ml for 2 hours then exposed to LPS, 4-HNE or Nigericin for 24 hours. Following incubation, the levels of the pro-inflammatory cytokine IL-6, cell viability and reactive oxygen species (ROS) production in the cell cultures were measured.

[1] = system: Reactive Oxygen Species (ROS); test: ROS production in corneal epithelial cell culture dry eye disease model; assay type: cell-based, human
Procedure: as §5, §6

IL-1B = IL-1B production in LPS-stimulated human PBMCs; assay type: cell-based; details: ZEP3 40, 100 and 150 μg/ml, 1 hr pre-treatment, LPS 24 hours; 4 donors
Procedure: as §1, §2, §3, §4

[2] = system: Human primary Corneal Epithelial Cells; test: Cell viability (LDH assay) in corneal epithelial cell culture dry eye disease model; assay type: cell-based
Procedure: as §5, §6

RANTES = RANTES production in LPS-stimulated human PBMCs; assay type: cell-based; details: ZEP3 40, 100 and 150 μg/ml, 1 hr pre-treatment, LPS 24 hours; 4 donors (FIG. 12)
Procedure: as §1, §2, §3, §4

IL-10 = IL-10 production in LPS-stimulated human PBMCs; assay type: cell-based; details: ZEP3 40, 100 and 150 μg/ml, 1 hr pre-treatment, LPS 24 hours; 4 donors
Procedure: as §1, §2, §3, §4

TNF alpha = test: ZEP3 pretreatment, expression of TNF alpha by LPS treated macrophages; assay type: cell-based, mouse; details: ZEP3 50 μg/mL 1 hour before LPS 100 ng/mL
Procedure: Macrophages originating from C57BL/6 mice were cultured at a density of 200,000 cells/mL in a 24-well plate (500 μl wells) and placed in a 37° C., 5% CO2 Incubator overnight. Following the overnight incubation media were replaced with fresh media containing 50 μg/ml ZEP3. Following 1-hour incubation 100 ng/mL LPS was added to the appropriate wells, the plates were incubated for additional 24 hours, then the amount of TNF alpha in each well was measured.

B6 Macrophage cells = test: Viability of macrophages activated by LPS and palmitic acid (LDH Cytotoxicity Assay Kit); assay type: cell-based, mouse; details: ZEP3 50 μg/ml, LPS 100 ng/ml; for OD (LDH Cytotoxicity Assay): 24 hours
Procedure: Macrophages originating from C57BL/6 mice were cultured at a density of 200,000 cells/mL in a 24-well plate (500 μl well) and incubated at 37° C. and 5% CO2 overnight. Following the overnight incubation, media were replaced with fresh media containing 100 ng/mL LPS, followed by three hours incubation. The LPS-containing media in the treatment groups were then replaced with fresh media containing ZEP3 at concentration of 50 μg/ml, followed by one-hour incubation. Next, palmitic acid (100, 200 or 400 μM) was added to the appropriate wells. The plates were incubated for additional 24 hours and the viability of cells was estimated using an LDH Cytotoxicity Assay Kit.

CCCCCCCC(=O)NCCCC[C@H](NC(=O)[C@H](Cc1c[nH]c2ccccc12)NC(=O)[C@H](CC(N)=O)NC(=O)[C@@H]1CCC(=O)N1)C(=O)O [ZEP3, pGlu-Asn-Trp-Lys(Octanoyl)-OH] ([pGlu]NWK(Octanoyl)-OH)
interferon gamma (IFNγ) production (IFNγ): significant reduction | level of IL-6 in cell culture (IL-6; HCECs pre-treated with ZEP3 (3 to 12 μg/ml, 2 hours), exposed to 4-HNE for 24 hr (FIG. 7)): 38.1 ± 1.37 pg/mL | reduction of IL-6 level (IL-6; ZEP3 treated vs untreated cell culture, 4-HNE 24 hr (FIG. 7)): 27.4% | level of ROS in cell culture ([1]; HCECs pre-treated with ZEP3, exposed to 4-HNE for 24 hours, DCFDA kit (FIG. 8)): 13000±800 RFU | reduction of ROS level ([1]; ZEP3 treated vs untreated cell culture, 4-HNE 24 hours (FIG. 8)): 51.9% | IL-1B production (IL-1B): significant reduction | cell death density ([2]; HCECs treated with ZEP3 and exposed to inflammation inducer, LDH assay (FIG. 6)): 3.625±1.092% | reduction of cell death density ([2]; ZEP3 treated vs untreated cell culture (FIG. 6)): 82.8% | RANTES production (RANTES): significant reduction | IL-10 production (FIG. 10) (IL-10): significant reduction | TNF alpha (TNF alpha; 24 hours): 101.2 pg/mL | % reduction of TNF alpha (TNF alpha; vs LPS control): 46.7% | OD (LDH Cytotoxicity Assay) (B6 Macrophage cells; palmitic acid 100 μM): 1.437 | OD (LDH Cytotoxicity Assay) (B6 Macrophage cells; palmitic acid 200 μM): 1.496 | OD (LDH Cytotoxicity Assay) (B6 Macrophage cells; palmitic acid 400 μM): 1.6095 | effect on the viability of inflammation-induced macrophage cells (B6 Macrophage cells; palmitic acid 100, 200 or 400 μM): no significant effect
